Measurements taken from the NIST ThermoML archive (doi:10.1021/acs.jced.7b00483).
Numbers after ± are expanded uncertainties.

Experiment: molar heat capacity at constant pressure; mn = molality of the nth substance listed, in mol/kg
Details: 100 kPa, Liquid, Flow calorimetry

[Cl][Cu][Cl] [copper chloride] + O
molar heat capacity at constant pressure [J/K/mol]
Details | 298.15 K | 303.15 K | 313.15 K | 323.15 K | 333.15 K | 343.15 K | 353.15 K | 363.15 K
m1 = 0.2971 | 74.06 ± 0.75 | 74.34 ± 0.76 | 74.86 ± 0.76 | 75.29 ± 0.76 | 75.6 ± 0.76 | 75.85 ± 0.76 | 75.98 ± 0.78 | 76.05 ± 0.78
m1 = 0.5433 | 73.82 ± 0.75 | 74.14 ± 0.75 | 74.68 ± 0.77 | 75.1 ± 0.77 | 75.41 ± 0.77 | 75.6 ± 0.77 | 75.69 ± 0.77 | 75.68 ± 0.77
m1 = 0.7083 | 73.51 ± 0.74 | 73.84 ± 0.76 | 74.42 ± 0.76 | 74.85 ± 0.76 | 75.16 ± 0.76 | 75.34 ± 0.76 | 75.34 ± 0.76 | 75.3 ± 0.76
m1 = 1.018 | 73.01 ± 0.74 | 73.37 ± 0.74 | 74 ± 0.74 | 74.48 ± 0.76 | 74.86 ± 0.76 | 75.1 ± 0.76 | 75.24 ± 0.76 | 75.22 ± 0.76
m1 = 1.448 | 72.53 ± 0.73 | 72.93 ± 0.73 | 73.62 ± 0.76 | 74.19 ± 0.76 | 74.61 ± 0.76 | 74.9 ± 0.76 | 75.05 ± 0.76 | 75.05 ± 0.76
m1 = 1.899 | 72.05 ± 0.72 | 72.47 ± 0.74 | 73.19 ± 0.74 | 73.8 ± 0.74 | 74.24 ± 0.74 | 74.59 ± 0.77 | 74.74 ± 0.77 | 74.78 ± 0.77
m1 = 2.012 | 72.27 ± 0.73 | 72.71 ± 0.73 | 73.51 ± 0.75 | 74.13 ± 0.75 | 74.61 ± 0.75 | 74.94 ± 0.75 | 75.12 ± 0.75 | 75.12 ± 0.75
m1 = 2.424 | 72.23 ± 0.73 | 72.74 ± 0.73 | 73.63 ± 0.76 | 74.38 ± 0.76 | 74.96 ± 0.76 | 75.37 ± 0.76 | 75.64 ± 0.78 | 75.73 ± 0.78
m1 = 2.954 | 72.36 ± 0.74 | 72.91 ± 0.74 | 73.85 ± 0.74 | 74.59 ± 0.76 | 75.16 ± 0.76 | 75.52 ± 0.76 | 75.71 ± 0.76 | 75.71 ± 0.76
m1 = 3.454 | 72.47 ± 0.75 | 73.05 ± 0.75 | 74.06 ± 0.75 | 74.93 ± 0.77 | 75.63 ± 0.77 | 76.15 ± 0.77 | 76.52 ± 0.77 | 76.67 ± 0.77
m1 = 4.036 | 72.69 ± 0.73 | 73.32 ± 0.75 | 74.4 ± 0.75 | 75.31 ± 0.75 | 76.01 ± 0.78 | 76.5 ± 0.78 | 76.79 ± 0.78 | 76.89 ± 0.78
m1 = 4.452 | 72.71 ± 0.75 | 73.37 ± 0.75 | 74.54 ± 0.75 | 75.48 ± 0.77 | 76.17 ± 0.77 | 76.62 ± 0.77 | 76.81 ± 0.77 | 76.78 ± 0.77

[Cl][Ni][Cl] [nickel chloride (NiCl2)] + O
molar heat capacity at constant pressure [J/K/mol]
Details | 298.15 K | 303.15 K | 313.15 K | 323.15 K | 333.15 K | 343.15 K | 353.15 K | 363.15 K
m1 = 0.1432 | 74.53 ± 0.77 | 74.56 ± 0.77 | 74.64 ± 0.77 | 74.73 ± 0.77 | 74.84 ± 0.77 | 74.97 ± 0.77 | 75.09 ± 0.77 | 75.24 ± 0.77
m1 = 0.3571 | 73.64 ± 0.75 | 73.75 ± 0.75 | 73.98 ± 0.75 | 74.17 ± 0.75 | 74.3 ± 0.77 | 74.41 ± 0.77 | 74.48 ± 0.77 | 74.5 ± 0.77
m1 = 0.7035 | 72.08 ± 0.74 | 72.41 ± 0.74 | 72.91 ± 0.74 | 73.42 ± 0.76 | 73.73 ± 0.76 | 73.92 ± 0.76 | 73.96 ± 0.76 | 73.88 ± 0.76
m1 = 0.9968 | 70.92 ± 0.72 | 71.28 ± 0.72 | 71.88 ± 0.74 | 72.38 ± 0.74 | 72.74 ± 0.74 | 72.98 ± 0.74 | 73.12 ± 0.74 | 73.12 ± 0.74
m1 = 1.24 | 70.61 ± 0.72 | 70.99 ± 0.72 | 71.67 ± 0.74 | 72.22 ± 0.74 | 72.63 ± 0.74 | 72.92 ± 0.74 | 73.06 ± 0.74 | 73.08 ± 0.74
m1 = 1.53 | 70.09 ± 0.71 | 70.49 ± 0.71 | 71.18 ± 0.74 | 71.73 ± 0.74 | 72.15 ± 0.74 | 72.44 ± 0.74 | 72.59 ± 0.74 | 72.59 ± 0.74
m1 = 1.874 | 69.74 ± 0.71 | 70.16 ± 0.71 | 70.89 ± 0.71 | 71.5 ± 0.74 | 71.93 ± 0.74 | 72.23 ± 0.74 | 72.41 ± 0.74 | 72.45 ± 0.74
m1 = 2.241 | 69.49 ± 0.72 | 69.96 ± 0.72 | 70.74 ± 0.72 | 71.39 ± 0.72 | 71.88 ± 0.74 | 72.2 ± 0.74 | 72.37 ± 0.74 | 72.4 ± 0.74
m1 = 2.608 | 69.48 ± 0.71 | 69.99 ± 0.71 | 70.89 ± 0.71 | 71.63 ± 0.74 | 72.2 ± 0.74 | 72.64 ± 0.74 | 72.89 ± 0.74 | 72.98 ± 0.74
m1 = 3.614 | 69.27 ± 0.7 | 69.86 ± 0.72 | 70.88 ± 0.72 | 71.73 ± 0.72 | 72.42 ± 0.75 | 72.94 ± 0.75 | 73.29 ± 0.75 | 73.49 ± 0.75
m1 = 4.102 | 69.42 ± 0.69 | 70.04 ± 0.72 | 71.12 ± 0.72 | 72.02 ± 0.72 | 72.69 ± 0.75 | 73.18 ± 0.75 | 73.48 ± 0.75 | 73.56 ± 0.75
